Experimental data as given in US8481540B2, “Inhibitors of bruton's tyrosine kinase” (Hoffmann-La Roche Inc., priority 2010, dated 2013).

The molecules below were run on B cells in human blood (assay: Inhibition of B cell activation in whole blood measured by CD69 expression). Details: CD69-positive, CD20-positive cells after anti-IgM stimulation, human whole blood, 20 hours, read-out: Human Whole Blood.
Assay type: cell-based
Description: Inhibition of B Cell Activation in Whole Blood Measured by CD69 Expression
A procedure to test the ability of Btk inhibitors to suppress B cell receptor-mediated activation of B cells in human blood is as follows:
Human whole blood (HWB) is obtained from healthy volunteers, with the following restrictions: 24 hr drug-free, non-smokers. Blood is collected by venipuncture into Vacutainer tubes anticoagulated with sodium heparin. Test compounds are diluted to […] the desired starting drug concentration in PBS (20×), followed by three-fold serial dilutions in 10% DMSO in PBS to produce a nine point dose-response curve. 5.5 μl of each compound dilution is added in duplicate to a 2 ml96-well V bottom plate (Analytical Sales and Services, #59623-23); 5.5 μl of 10% DMSO in PBS is added to control and no-stimulus wells. HWB (100 μl) is added to each well, and after mixing the plates are incubated at 37 C, 5% CO2, 100% humidity for 30 minutes. Goat F(ab′)2 anti-human IgM (Southern Biotech, #2022-14) (10 μl of a […] solution, 50 μg/ml final concentration) is added to each well (except the no-stimulus wells) with mixing and the plates are incubated for an additional 20 hours.
At the end of the 20 hour incubation, samples are incubated with florescent-probe-labeled anti-bodies (15 μl PE Mouse anti-Human CD20, BD Pharmingen, #555623, and/or 20 ul APC Mouse anti-Human CD69, BD Pharmingen #555533) for 30 minutes, at 37 C, 5% CO2, 100% humidity. Included are induced control, unstained and single stains for compensation adjustments and initial voltage settings. Samples are then lysed with 1 ml of 1× Pharmingen Lyse Buffer (BD Pharmingen #555899), and plates are centrifuged at 1800 rpm for 5 minutes. Supernatants are removed via suction and the remaining pellets are lysed again with another 1 ml of 1× Pharmingen Lyse Buffer, and plates are spun down as before. Supernatants are aspirated and remaining pellets are washed in FACs buffer (PBS+1% FBS). After a final spin, the supernantants are removed and pellets are resuspended in 180 μl of FACs buffer. Samples are transferred to a 96 well plate suitable to be run on the HTS 96 well system on the BD LSR II flow cytometer.
Using appropriate excitation and emission wavelengths for the fluorophores used, data are acquired and percent positive cell values are obtained using Cell Quest Software. Results are initially analyzed by FACS analysis software (Flow Jo). […] The IC50 values are calculated using XLfit software version 3, equation 201.
Representative compound data for this assay are listed below in Table II.

SMILES	IC50
Cn1nc(-c2cccc(-n3ncc4cc(C(C)(C)C)cc(F)c4c3=O)c2CO)cc(Nc2ccc(C(=O)N3CC4(COC4)C3)cn2)c1=O [I-49, 2-(3-(5-(5-(2-oxa-6-azaspiro[3.3]heptane-6-carbonyl)pyridin-2-ylamino)-1-methyl-6-oxo-1,6-dihydropyridazin-3-yl)-2-(hydroxymethyl)phenyl)-6-tert-butyl-8-fluorophthalazin-1(2H)-one]	0.085 µM
CN1CC2(C1)CN(C(=O)c1ccc(Nc3cc(-c4cccc(-n5ncc6cc(C(C)(C)C)cc(F)c6c5=O)c4CO)nn(C)c3=O)nc1)C2 [I-50, 6-tert-butyl-8-fluoro-2-(2-(hydroxymethyl)-3-(1-methyl-5-(5-(6-methyl-2,6-diazaspiro[3.3]heptane-2-carbonyl)pyridin-2-ylamino)-6-oxo-1,6-dihydropyridazin-3-yl)phenyl)phthalazin-1(2H)-one]	0.086 µM
Cn1nc(-c2cccc(-n3ncc4cc(C(C)(C)C)cc(F)c4c3=O)c2CO)cc(Nc2ccc(C(=O)N3CC(C#N)C3)cn2)c1=O [I-53, 1-(6-(6-(3-(6-tert-butyl-8-fluoro-1-oxophthalazin-2(1H)-yl)-2-(hydroxymethyl)phenyl)-2-methyl-3-oxo-2,3-dihydropyridazin-4-ylamino)nicotinoyl)azetidine-3-carbonitrile]	0.039 µM
Cn1nc(-c2cccc(-n3ncc4cc(C(C)(C)C)cc(F)c4c3=O)c2CO)cc(Nc2ccc(C(=O)N3CCC(O)C3)cn2)c1=O (stereo not shown) [I-54, 6-tert-butyl-8-fluoro-2-(2-(hydroxymethyl)-3-(5-(5-(3-hydroxypyrrolidine-1-carbonyl)pyridin-2-ylamino)-1-methyl-6-oxo-1,6-dihydropyridazin-3-yl)phenyl)phthalazin-1(2H)-one]	0.104 µM
Cn1nc(-c2cccc(-n3ncc4cc(C(C)(C)C)cc(F)c4c3=O)c2CO)cc(Nc2ccc(C(=O)N3CCC(O)CC3)cn2)c1=O [I-55, 6-tert-butyl-8-fluoro-2-(2-(hydroxymethyl)-3-(5-(5-(4-hydroxypiperidine-1-carbonyl)pyridin-2-ylamino)-1-methyl-6-oxo-1,6-dihydropyridazin-3-yl)phenyl)phthalazin-1(2H)-one]	0.041 µM
Cn1nc(-c2cccc(-n3ncc4cc(C(C)(C)C)cc(F)c4c3=O)c2CO)cc(Nc2ccc(C3CCNCC3)cn2)c1=O [I-61, 6-tert-butyl-8-fluoro-2-(2-(hydroxymethyl)-3-(1-methyl-6-oxo-5-(5-(piperidin-4-yl)pyridin-2-ylamino)-1,6-dihydropyridazin-3-yl)phenyl)phthalazin-1(2H)-one]	0.074 µM
Cn1nc(-c2cccc(-n3ncc4cc(C(C)(C)C)cc(F)c4c3=O)c2CO)cc(Nc2ccc(C3CCN(S(C)(=O)=O)CC3)cn2)c1=O [I-62, 6-tert-butyl-8-fluoro-2-(2-(hydroxymethyl)-3-(1-methyl-5-(5-(1-(methylsulfonyl)-piperidin-4-yl)pyridin-2-ylamino)-6-oxo-1,6-dihydropyridazin-3-yl)phenyl)phthalazin-1(2H)-one]	0.144 µM
CC(=O)N1CCC(c2ccc(Nc3cc(-c4cccc(-n5ncc6cc(C(C)(C)C)cc(F)c6c5=O)c4CO)nn(C)c3=O)nc2)CC1 [I-63, 2-(3-(5-(5-(1-acetylpiperidin-4-yl)pyridin-2-ylamino)-1-methyl-6-oxo-1,6-dihydropyridazin-3-yl)-2-(hydroxymethyl)phenyl)-6-tert-butyl-8-fluorophthalazin-1(2H)-one]	0.189 µM
Cn1nc(-c2cccc(-n3ncc4cc(C(C)(C)C)cc(F)c4c3=O)c2CO)cc(Nc2ccc(N3CCC(C)(O)CC3)cn2)c1=O [I-64, 6-tert-butyl-8-fluoro-2-(3-(5-(5-(4-hydroxy-4-methylpiperidin-1-yl)pyridin-2-ylamino)-1-methyl-6-oxo-1,6-dihydropyridazin-3-yl)-2-(hydroxymethyl)-phenyl)phthalazin-1(2H)-one]	0.066 µM
Cn1nc(-c2cccc(-n3ncc4cc(C(C)(C)C)cc(F)c4c3=O)c2CO)cc(Nc2ccc(N3CCC(O)CC3)cn2)c1=O [I-65, 6-tert-butyl-8-fluoro-2-(2-(hydroxymethyl)-3-(5-(5-(4-hydroxypiperidin-1-yl)pyridin-2-ylamino)-1-methyl-6-oxo-1,6-dihydropyridazin-3-yl)phenyl)phthalazin-1(2H)-one]	0.062 µM
CN1C[C@H]2CC[C@@H](C1)N2c1ccc(Nc2cc(-c3cccc(-n4ncc5cc(C(C)(C)C)cc(F)c5c4=O)c3CO)nn(C)c2=O)nc1 [I-66, 6-tert-Butyl-8-fluoro-2-(2-hydroxymethyl-3-{1-methyl-5-[5-((1R,5S)-3-methyl-3,8-diaza-bicyclo[3.2.1]oct-8-yl)-pyridin-2-ylamino]-6-oxo-1,6-dihydro-pyridazin-3-yl}-phenyl)-2H-phthalazin-1-one]	0.023 µM
Cn1nc(Nc2cc(-c3cccc(-n4ccc5cc(C(C)(C)C#N)cc(F)c5c4=O)c3CO)nn(C)c2=O)cc1CN1CCC1 [I-72, 2-(2-{3-[5-(5-Azetidin-1-ylmethyl-1-methyl-1H-pyrazol-3-ylamino)-1-methyl-6-oxo-1,6-dihydro-pyridazin-3-yl]-2-hydroxymethyl-phenyl}-8-fluoro-1-oxo-1,2-dihydro-isoquinolin-6-yl)-2-methyl-propionitrile]	0.056 µM

Next, values leading:

IC50	SMILES
0.034 µM	CN1CCn2nc(Nc3cc(-c4cccc(-n5ccc6cc(C(C)(C)C#N)cc(F)c6c5=O)c4CO)nn(C)c3=O)cc2C1 [I-74, 2-(8-Fluoro-2-{2-hydroxymethyl-3-[1-methyl-5-(5-methyl-4,5,6,7-tetrahydro-pyrazolo[1,5-a]pyrazin-2-ylamino)-6-oxo-1,6-dihydro-pyridazin-3-yl]-phenyl}-1-oxo-1,2-dihydro-isoquinolin-6-yl)-2-methyl-propionitrile]
0.032 µM	CN1CCC(c2ccc(Nc3cc(-c4cccc(-n5ccc6cc(C(C)(C)C#N)cc(F)c6c5=O)c4CO)nn(C)c3=O)nc2)CC1 [I-71, 2-(8-Fluoro-2-{2-hydroxymethyl-3-[1-methyl-5-(1′-methyl-1′,2′,3′,4′,5′,6′-hexahydro-[3,4′]bipyridinyl-6-ylamino)-6-oxo-1,6-dihydro-pyridazin-3-yl]-phenyl}-1-oxo-1,2-dihydro-isoquinolin-6-yl)-2-methyl-propionitrile]
0.03 µM	Cn1nc(-c2cccc(-n3ccc4cc(C(C)(C)C#N)cc(F)c4c3=O)c2CO)cc(Nc2ccc(OC(C)(C)CN3CCC3)cn2)c1=O [I-73, 2-[2-(3-{5-[5-(2-Azetidin-1-yl-1,1-dimethyl-ethoxy)-pyridin-2-ylamino]-1-methyl-6-oxo-1,6-dihydro-pyridazin-3-yl}-2-hydroxymethyl-phenyl)-8-fluoro-1-oxo-1,2-dihydro-isoquinolin-6-yl]-2-methyl-propionitrile]
0.027 µM	CN(CCO)C(=O)c1ccc(Nc2cc(-c3cccc(-n4ncc5cc(C(C)(C)C)cc(F)c5c4=O)c3CO)nn(C)c2=O)nc1 [I-52, 6-(6-(3-(6-tert-butyl-8-fluoro-1-oxophthalazin-2(1H)-yl)-2-(hydroxymethyl)phenyl)-2-methyl-3-oxo-2,3-dihydropyridazin-4-ylamino)-N-(2-hydroxyethyl)-N-methylnicotinamide]
0.019 µM	CN(C)CCNC(=O)c1ccc(Nc2cc(-c3cccc(-n4ncc5cc(C(C)(C)C)cc(F)c5c4=O)c3CO)nn(C)c2=O)nc1 [I-51, 6-(6-(3-(6-tert-butyl-8-fluoro-1-oxophthalazin-2(1H)-yl)-2-(hydroxymethyl)phenyl)-2-methyl-3-oxo-2,3-dihydropyridazin-4-ylamino)-N-(2-(dimethylamino)ethyl)nicotinamide]
0.017 µM	CN1CCN(c2ccc(Nc3cc(-c4cccc(-n5ncc6cc(C(C)(C)C)cc(F)c6c5=O)c4CO)nn(C)c3=O)nc2)CC1 [I-56, 6-tert-Butyl-8-fluoro-2-(2-hydroxymethyl-3-{1-methyl-5-[5-(4-methyl-piperazin-1-yl)-pyridin-2-ylamino]-6-oxo-1,6-dihydro-pyridazin-3-yl}-phenyl)-2H-phthalazin-1-one]

Same assay, conditions: Homo sapiens, 20 h, read-out: Human Whole Blood

SMILES	IC50
CN1CCC(c2ccc(Nc3cc(-c4cccc(-n5ncc6cc(C(C)(C)C)cc(F)c6c5=O)c4CO)nn(C)c3=O)nc2)CC1 [I-67, 6-tert-Butyl-8-fluoro-2-{2-hydroxymethyl-3-[1-methyl-5-(1′-methyl-1′,2′,3′,4′,5′,6′-hexahydro-[3,4]bipyridinyl-6-ylamino)-6-oxo-1,6-dihydro-pyridazin-3-yl]-phenyl}-2H-phthalazin-1-one]	0.004 µM
